System: F. graminearum CBS185.32 strain
Assay type: cell-based, Fusarium graminearum
Details: for Impact of methyl caps on the activity of TC3 (ability to inhibit TCTB production): 50 µM

Substance | Inhibitory activity on TCTB production | Impact of methyl caps on the activity of TC3 (ability to inhibit TCTB production)
CGNFLTRTCICVKK [TC3-K6T, TC3 with Lys6 substituted by Thr] | lowest inhibitory activity | 
CGNFLKRTC(CH3)ICVKK (disulfide) [TC3-CH3-2Ox, TC3-CH3-2 oxidized, cyclized through the non-capped Cys] |  | most negative impact
CGNFLKRTCIC(CH3)VKK (disulfide) [TC3-CH3-3Ox, TC3-CH3-3 oxidized, cyclized through the non-capped Cys] |  | most negative impact

From paper PMC8042122 (Scientific Reports, 2021)
